In article PMC6222357, “Liquid Chromatography-Tandem Mass Spectrometry Simultaneous Determination and Pharmacokinetic Study of Fourteen Alkaloid Components in Dog Plasma after Oral Administration of Corydalis bungeana Turcz Extract” (Molecules : A Journal of Synthetic Chemistry and Natural …, 2018):

Assays:
[1] = Pharmacokinetic study in beagle dogs after oral administration of C. bungeana extract (UHPLC-MS/MS of plasma); details: for Shape of plasma concentration-time profile / Time of first peak of plasma concentration-time profile / Time of second peak of plasma concentration-time profile: beagle dog plasma; for Shape of plasma concentration-time profile: oral C. bungeana extract 0.12 g/kg; for Time of first peak of plasma concentration-time profile / Time of second peak of plasma concentration-time profile: oral C. bungeana extract, post-dose; for AUC(0-inf) / AUC(0-t) / Cmax / half-life / Tmax: male, beagle, dog, plasma, po, 0.12 g/kg
Description: The developed UHPLC-MS/MS method was employed to determine the pharmacokinetics of the fourteen components in C. bungeana after a single oral administration of 0.12 g/kg (equivalent to 1180.8 µg/kg A, 100.8 µg/kg B, 172.8 µg/kg C, 194.4 µg/kg D, 147.6 µg/kg E, 291.6 µg/kg F, 7.2 µg/kg G, 64.8 µg/kg H, 10.8 µg/kg I, 435.6 µg/kg J, 7.2 µg/kg K, 2851.2 µg/kg L, 694.8 µg/kg M, 928.8µg/kg N) to six beagle dogs. […] According to the Meeh-Rubn method, we established a final oral dosage of 0.12 g/kg in dogs. The plasma concentrations of the fourteen components at each time point were detected and the data gained from six beagle dogs were averaged.
Before the experiment, the beagle dogs were fasted for 12 h but given water during the research period. Blood (300 µL) was collected from the forelimb vein plexus at a few specific time points (0.083, 0.25, 0.5, 0.75 and 1, 2, 3, 4, 6, 8, 12, 24 h) after the oral administration of the extract of C. bungeana (0.12 g/kg). After centrifugation at 13,000 rpm for 10 min, the plasma was collected immediately and maintained at −80 °C until sample analysis.
Using a liquid-liquid extraction method, 100 µL of methanol and 50 µL of IS (bifendate) were added to a beagle dog plasma sample (100 µL) followed by vortex for 30 s. Then 3 mL of aether was accurately added and the mixture was vortexed for 60 s. After this step, the samples were put into a centrifuge (XiangYi Technologies, Changsha, Hunan, China). The organic supernatant was pipetted into clean glass tubes individually after centrifugation 3800 rpm for 6 min. The upper organic layer was removed and evaporated to dryness at 40 °C under a stream of nitrogen. The residue was then redissolved with 100 µL of mobile phase (28% acetonitrile), vortexed for 30 s and filtered by a 0.22 µm membrane. A 10 µL aliquot of the solution was injected into the UHPLC-MS/MS system for analysis.
Concentrations of fourteen alkaloids in beagle dog blood were calculated employing the Excel program (Microsoft Corp., Redmond, WA, USA). Pharmacokinetic parameters were calculated using non-compartmental methods. The elimination rate constant (Ke) was calculated employing the linear regression of the terminal points in a semi-log plot of the plasma concentration against time. The elimination half-life (t1/2) was calculated using the formula. t1/2 = 0.693/Ke(1)
The area under the blood concentration versus time curve up to the last quantifiable time point (AUC0→t) was calculated by the linear trapezoidal rule. The area under the plasma concentration –time curve to time infinity (AUC0→∞) was calculated as follows: AUC0→∞ = AUC0→t + Ct/Ke(2)
The maximum observed blood concentration (Cmax) and the time to reach maximum observed blood concentration (Tmax) were obtained directly from the concentration-time curve.

[2] = Room temperature stability of stock solution; type: physicochemical; details: 25 °C for 24 h, n = 6
Description: (§1) The stability of the fourteen analytes in beagle dogs investigated by analyzing QC samples of each analyte at three QC levels (LQC, MQC and HQC) and each level contained six replicates. The short-term stability was assessed during storage for 4 h at ambient temperature. The long-term stability was determined after the QC samples had been stored for 2 weeks at −80 °C. The freeze-thaw stability was determined after three freeze at −80 °C and thaw cycles. and post-preparative stability was during storage for 12 h after sample preparation at 4 °C. The room temperature stability for stock solution was determined after storing the sample at 25 °C for 24 h. A series of concentrations of stability testing QC samples was gained by the calibration curve which was established from freshly prepared standard samples.

[3] = Stability of the analytes in beagle plasma QC samples under different storage conditions; type: physicochemical, beagle dog; details: n = 6; for Stability (% RE) Long-Term: 2 weeks at −80 °C; for Stability (% RE) Short-Term: 4 h at ambient temperature; for Stability (% RE) Freeze-Thaw: three freeze (−80 °C)-thaw cycles; for Stability (% RE) Post-Preparative: 12 h after sample preparation at 4 °C
Description: As illustrated in Table 4. The stability of QC samples at three evaluated concentrations contained low, medium and high under different stored conditions was assessed on the basis of peak areas in comparison with freshly prepared QC sample.
as §1

Row | AUC(0-inf) [1] [ng·h/mL] | AUC(0-t) [1] [ng·h/mL] | Cmax [1] [ng/mL] | half-life [1] [h] | Stability (% RE) Room Temperature for Stock-Solution ([2]; high QC level) [% RE] | Stability (% RE) Room Temperature for Stock-Solution ([2]; low QC level) [% RE] | Stability (% RE) Room Temperature for Stock-Solution ([2]; medium QC level) [% RE] | Stability (% RE) Long-Term ([3]; high QC in beagle plasma) [% RE] | Stability (% RE) Short-Term ([3]; high QC in beagle plasma) [% RE] | Stability (% RE) Freeze-Thaw ([3]; high QC in beagle plasma) [% RE] | Stability (% RE) Post-Preparative ([3]; high QC) [% RE] | Stability (% RE) Long-Term ([3]; low QC in beagle plasma) [% RE] | Stability (% RE) Short-Term ([3]; low QC in beagle plasma) [% RE] | Stability (% RE) Freeze-Thaw ([3]; low QC in beagle plasma) [% RE] | Stability (% RE) Post-Preparative ([3]; low QC) [% RE] | Stability (% RE) Long-Term ([3]; medium QC in beagle plasma) [% RE] | Stability (% RE) Short-Term ([3]; medium QC in beagle plasma) [% RE] | Stability (% RE) Freeze-Thaw ([3]; medium QC in beagle plasma) [% RE] | Stability (% RE) Post-Preparative ([3]; medium QC) [% RE] | Tmax [1] [h] | Structure (SMILES) | other results
1 | 3770 ± 139 | 3690 ± 141 | 1370 ± 313 | 2.49 ± 0.14 | −3.26 | 2.22 | 4.08 | 7.00 | 11.96 | 7.71 | 10.36 | 7.75 | 9.61 | 12.57 | 11.84 | 7.72 | 7.42 | 11.60 | 9.39 | 0.92 ± 0.13 | COc1ccc2cc3[n+](cc2c1OC)CCc1cc2c(cc1-3)OCO2 [Berberine, berberine] | Shape of plasma concentration-time profile [1]: conspicuous bimodal phenomenon; Time of first peak of plasma concentration-time profile [1]: 0.5 to 1 h; Time of second peak of plasma concentration-time profile [1]: 4 to 8 h
2 | 9580 ± 596 | 8040 ± 459 | 1900 ± 84.9 | 8.56 ± 1.29 | – | – | – | 11.04 | 6.73 | 8.37 | −7.08 | 7.79 | 9.42 | 10.26 | 6.92 | 10.77 | −6.30 | 8.08 | 9.22 | 0.96 ± 0.1 | COc1cc2c(cc1OC)-c1cc3ccc(OC)c(OC)c3c[n+]1CC2 [Palmatine, palmatine] | Shape of plasma concentration-time profile [1]: conspicuous bimodal phenomenon; Time of first peak of plasma concentration-time profile [1]: 0.5 to 1 h; Time of second peak of plasma concentration-time profile [1]: 4 to 8 h
3 | 622 ± 52.5 | 585 ± 59.9 | 205 ± 22.4 | 5.58 ± 1.46 | 1.28 | 2.97 | 4.65 | 10.23 | 5.15 | 10.09 | 8.76 | −5.67 | 9.24 | 11.34 | 10.82 | 11.88 | 3.11 | 12.23 | 8.29 | 0.92 ± 0.13 | COc1cc2c(cc1OC)[C@@H]1Cc3ccc(OC)c(OC)c3CN1CC2 [Terahydropalmatine, tetrahydropalmatine] | –
4 | 1200 ± 86.3 | 1160 ± 94.2 | 450 ± 61.6 | 4.88 ± 1.72 | 3.65 | −2.05 | 1.25 | 11.01 | 10.78 | 10.06 | 5.08 | 11.85 | 11.76 | 12.88 | 5.99 | 3.75 | 5.82 | 5.15 | 7.97 | 0.96 ± 0.1 | COc1ccc2cc3[n+](cc2c1O)CCc1cc2c(cc1-3)OCO2 [Berberrubine, berberrubine] | –

Further lines, the molecule ahead of its results:

Row | Structure (SMILES) | AUC(0-inf) [1] [ng·h/mL] | AUC(0-t) [1] [ng·h/mL] | Cmax [1] [ng/mL] | half-life [1] [h] | Stability (% RE) Room Temperature for Stock-Solution ([2]; high QC level) [% RE] | Stability (% RE) Room Temperature for Stock-Solution ([2]; low QC level) [% RE] | Stability (% RE) Room Temperature for Stock-Solution ([2]; medium QC level) [% RE] | Stability (% RE) Long-Term ([3]; high QC in beagle plasma) [% RE] | Stability (% RE) Short-Term ([3]; high QC in beagle plasma) [% RE] | Stability (% RE) Freeze-Thaw ([3]; high QC in beagle plasma) [% RE] | Stability (% RE) Post-Preparative ([3]; high QC) [% RE] | Stability (% RE) Long-Term ([3]; low QC in beagle plasma) [% RE] | Stability (% RE) Short-Term ([3]; low QC in beagle plasma) [% RE] | Stability (% RE) Freeze-Thaw ([3]; low QC in beagle plasma) [% RE] | Stability (% RE) Post-Preparative ([3]; low QC) [% RE] | Stability (% RE) Long-Term ([3]; medium QC in beagle plasma) [% RE] | Stability (% RE) Short-Term ([3]; medium QC in beagle plasma) [% RE] | Stability (% RE) Freeze-Thaw ([3]; medium QC in beagle plasma) [% RE] | Stability (% RE) Post-Preparative ([3]; medium QC) [% RE] | Tmax [1] [h] | other results
5 | COc1cc2c(cc1O)CC[n+]1cc3c(OC)c(OC)ccc3cc1-2 [Jateorhizine, jateorhizine] | 163 ± 11 | 151 ± 6.42 | 74.2 ± 8.71 | 6.29 ± 1.09 | 1.32 | 1.16 | −3.58 | 8.26 | 6.64 | 6.24 | 8.41 | 12.90 | 7.31 | 10.65 | 6.63 | 10.30 | 3.05 | 8.68 | 8.51 | – | Shape of plasma concentration-time profile [1]: conspicuous bimodal phenomenon; Time of first peak of plasma concentration-time profile [1]: 0.5 to 1 h; Time of second peak of plasma concentration-time profile [1]: 4 to 8 h
6 | CN1C(=O)c2c(ccc3c2OCO3)C2(C)C(O)Cc3cc4c(cc3C12)OCO4 (centres unmarked) [8-oxocorynoline] | 284 ± 62.4 | 260 ± 64.2 | 94.5 ± 22.8 | 6.98 ± 1.76 | 2.30 | −4.08 | 3.77 | 3.13 | −2.89 | −3.58 | 10.60 | 3.08 | 1.62 | 1.18 | 3.71 | 5.35 | −3.92 | 9.69 | 10.01 | 0.92 ± 0.13 | –
7 | COc1cc2c(cc1O)-c1cc3ccc(OC)c(OC)c3c[n+]1CC2 [Columbamine, columbamine] | 7030 ± 290 | 6830 ± 170 | 2130 ± 196 | 2.87 ± 0.42 | 2.50 | 4.02 | 1.62 | 10.24 | 9.67 | 5.60 | 12.44 | 9.66 | 8.47 | 11.50 | 8.80 | 11.77 | 4.02 | 12.73 | 5.50 | 0.92 ± 0.13 | Shape of plasma concentration-time profile [1]: conspicuous bimodal phenomenon; Time of first peak of plasma concentration-time profile [1]: 0.5 to 1 h; Time of second peak of plasma concentration-time profile [1]: 4 to 8 h
8 | CC(=O)O[C@H]1Cc2cc3c(cc2[C@H]2N(C)Cc4c(ccc5c4OCO5)[C@@]12C)OCO3 [Acetylcorynoline, acetylcorynoline] | 244 ± 26.2 | 230 ± 18.6 | 107 ± 4.63 | 5.52 ± 0.93 | 3.69 | −1.83 | 2.57 | 7.32 | −4.81 | −4.20 | 2.05 | 8.62 | 6.47 | 5.17 | 12.65 | 7.56 | 6.74 | −3.75 | −3.44 | 0.58 ± 0.13 | –
9 | CN1Cc2c(ccc3c2OCO3)[C@@]2(C)[C@@H](O)Cc3cc4c(cc3[C@@H]12)OCO4 [Corynoline, corynoline] | 755 ± 58.9 | 734 ± 57.5 | 224 ± 15.3 | 4.25 ± 0.81 | – | – | – | 9.74 | 6.81 | 7.95 | 5.40 | 13.95 | −2.63 | 6.11 | 7.14 | 6.81 | 9.25 | 6.78 | −2.98 | 0.96 ± 0.1 | Shape of plasma concentration-time profile [1]: conspicuous bimodal phenomenon; Time of first peak of plasma concentration-time profile [1]: 0.5 to 1 h; Time of second peak of plasma concentration-time profile [1]: 4 to 8 h
